Measured values from patent US20220235064A1 (WELLMARKER BIO CO., LTD., priority 2019, published 2022).
Structures can show the parent of a compound that is named as a salt.

Columns and labels:
[1] = tested on: cancer cell line KM12C, in which RON is activated; experiment: Cell growth inhibitory ability in RON-activated cancer cell line (MTS); format: cell-based; conditions: Homo sapiens, 48 hours, absorbance 490 nm
Outline: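 KM12C cells (RON-activated, MEM with FBS) exposed to compound […] for 48 h. MTS added 24 h after treatment ended, incubated 4 h at 37° C, absorbance read at 490 nm. IC50 derived from absorbance.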

[2] = tested on: cancer cell line HT29, in which mutated RON (Δ160) is expressed; experiment: Cell-killing efficacy in RON-mutated cancer cell line HT29 (trypan blue); format: cell-based; conditions: for cytotoxicity at 1 µM / cytotoxicity at 5 µM: Homo sapiens, HT-29, 48 hours, trypan blue, n=2, read-out: Cell death (%) Cancer cell line HT29; for cell-killing effect (in words): HT29, as compared with the positive control
Method: (§1) Experimental Example 4: Measurement of Cell-Killing Efficacy of Example Compounds in RON-Mutated Cancer Cell Lines
(§2) Each of two colorectal cancer cell lines, that is, the cancer cell line HT29 (30038, KCLB, RPMI+10% FBS), in which mutated RON (Δ160) is expressed, and the cancer cell line SW620 (CCL-227, ATCC, RPMI+10% FBS), in which mutated RON (Δ155) is expressed, was dispensed into each 60 mm^2 dish at 1×10^5 cells. After 24 hours, the dish was treated with each of the example compounds at a concentration of 1 μM or 5 μM while performing medium exchange, and then reaction was allowed to proceed for 48 hours. After 48 hours, centrifugation was performed for 4 minutes at 1,500 rpm to collect cells and cell fluid. Thereafter, living cells and dead cells were quantified (n=2) using a trypan blue solution (15250-061, Gibco), and statistical analysis was performed using Excel-T-test. Here, as a negative control, only a solvent (0.10% DMSO) was used; and as a positive control, N-(4-(2-amino-3-chloropyridin-4-yloxy)-3-fluorophenyl)-4-ethoxy-1-(4-fluorophenyl)-2-oxo-1,2-dihydropyridine-3-carboxamide, which is the compound of Example 1 in WO 2008/058229 A1, was used.

[3] = target: T1, RON tyrosine kinase (Homo sapiens, UniProt Q04912); experiment: Enzyme inhibitory activity against RON tyrosine kinase (TR-FRET); format: biochemical; conditions: RON (Carna Bioscience)
T1 construct: purchased Carna Bioscience
T1 sequence (Q04912 25-1400): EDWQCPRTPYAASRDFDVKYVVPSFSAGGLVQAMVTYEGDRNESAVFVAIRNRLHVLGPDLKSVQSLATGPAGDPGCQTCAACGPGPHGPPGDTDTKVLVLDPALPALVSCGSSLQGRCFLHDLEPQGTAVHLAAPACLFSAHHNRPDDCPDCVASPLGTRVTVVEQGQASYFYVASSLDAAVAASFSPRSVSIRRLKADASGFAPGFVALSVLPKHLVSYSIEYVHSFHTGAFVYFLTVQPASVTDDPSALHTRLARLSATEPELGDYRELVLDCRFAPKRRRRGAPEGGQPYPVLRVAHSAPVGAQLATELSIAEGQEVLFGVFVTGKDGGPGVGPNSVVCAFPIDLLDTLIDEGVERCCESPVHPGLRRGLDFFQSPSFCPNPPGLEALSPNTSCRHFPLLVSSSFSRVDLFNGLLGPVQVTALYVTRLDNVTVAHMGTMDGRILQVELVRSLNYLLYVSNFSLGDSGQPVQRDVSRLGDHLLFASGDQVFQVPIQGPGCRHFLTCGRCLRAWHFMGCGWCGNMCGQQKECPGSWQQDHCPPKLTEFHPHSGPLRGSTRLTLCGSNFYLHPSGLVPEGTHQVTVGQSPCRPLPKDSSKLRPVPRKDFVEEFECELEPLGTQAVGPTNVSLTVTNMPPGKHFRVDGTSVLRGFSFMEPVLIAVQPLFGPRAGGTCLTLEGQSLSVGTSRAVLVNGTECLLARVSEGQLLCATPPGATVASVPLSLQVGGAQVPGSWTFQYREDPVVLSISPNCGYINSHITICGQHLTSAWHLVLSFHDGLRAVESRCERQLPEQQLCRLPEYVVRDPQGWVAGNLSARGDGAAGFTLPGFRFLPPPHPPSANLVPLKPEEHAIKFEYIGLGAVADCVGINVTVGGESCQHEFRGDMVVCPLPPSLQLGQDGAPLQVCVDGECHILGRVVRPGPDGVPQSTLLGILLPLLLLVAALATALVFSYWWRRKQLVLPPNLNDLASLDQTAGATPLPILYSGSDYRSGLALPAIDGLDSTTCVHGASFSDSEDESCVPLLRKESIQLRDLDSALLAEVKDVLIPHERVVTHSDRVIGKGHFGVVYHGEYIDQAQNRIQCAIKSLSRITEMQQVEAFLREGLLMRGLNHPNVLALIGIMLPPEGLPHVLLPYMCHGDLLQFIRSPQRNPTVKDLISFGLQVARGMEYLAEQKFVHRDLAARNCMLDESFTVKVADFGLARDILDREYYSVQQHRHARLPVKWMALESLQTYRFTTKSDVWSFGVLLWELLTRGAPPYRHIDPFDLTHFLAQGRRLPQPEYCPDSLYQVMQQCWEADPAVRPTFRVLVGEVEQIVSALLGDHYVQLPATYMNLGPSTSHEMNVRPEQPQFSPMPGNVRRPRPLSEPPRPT
Outline: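 Recombinant RON was preincubated with compound for 15 min at RT in 50 mM HEPES pH 7.5, 10 mM MgCl2, 1 mM EGTA, 2 mM DTT, 0.01% Tween-20. Enzyme (0.4 nM), ATP (60 μM) and tyrosine peptide (400 nM) were prepared at 2×, 4× and 4× final. After 60 min at RT, EDTA/Eu-anti-phosphotyrosine stop; IC50 from 665 nm TR-FRET emission.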

[4] = tested on: cancer cell line KM12C, in which RON is activated; experiment: Cell-killing efficacy in RON-activated cancer cell line (trypan blue); format: cell-based; conditions: for cytotoxicity at 1 µM / cytotoxicity at 5 µM: Homo sapiens, 48 hours, trypan blue, n=2, read-out: Cell death (%) Cancer cell line KM12C; for cell-killing effect (in words): as compared with the positive control
Outline: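 KM12C cells seeded 1×10^5 per 60 mm^2 dish in MEM + 10% FBS, then exposed 24 h later to compound at 1 μM or 5 μM for 48 h.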

[5] = tested on: cancer cell line SW620, in which mutated RON (Δ155) is expressed; experiment: Cell-killing efficacy in RON-mutated cancer cell line SW620 (trypan blue); format: cell-based; conditions: for cytotoxicity at 1 µM / cytotoxicity at 5 µM: Homo sapiens, SW-620, 48 hours, trypan blue, n=2, read-out: Cell death (%) Cancer cell line SW620; for cell-killing effect (in words): SW620, as compared with the positive control
Method: as §1, §2

Structure (SMILES)	IC50 [1]	cytotoxicity at 1 µM [2]	cytotoxicity at 5 µM [2]	IC50 [3]	cytotoxicity at 1 µM [4]	cytotoxicity at 5 µM [4]	cytotoxicity at 1 µM [5]	cytotoxicity at 5 µM [5]	cell-killing effect (in words) [2]	cell-killing effect (in words) [4]	cell-killing effect (in words) [5]
COc1cc2c(Oc3ccc(NC(=O)c4c5c(cn(-c6ccc(F)cc6)c4=O)CCO5)cc3F)ccnc2cc1NC(=O)CN1CCOCC1 [Example 182, N-(3-Fluoro-4-((6-methoxy-7-(2-morpholinoacetamido)quinolin-4-yl)oxy)phenyl)-5-(4-fluorophenyl)-6-oxo-2,3,5,6-tetrahydrofuro[3,2-c]pyridine-7-carboxamide]	8 nM	7.6%	10.2%	3.35 nM	25.1%	44.4%	–	–	–	–	–
COc1cc2nccc(Oc3ccc(NC(=O)c4c5c(cn(-c6ccc(F)cc6)c4=O)CCO5)cc3F)c2cc1OC [Example 40, N-(4-((6,7-Dimethoxyquinolin-4-yl)oxy)-3-fluorophenyl)-5-(4-fluorophenyl)-6-oxo-2,3,5,6-tetrahydrofuro[3,2-c]pyridine-7-carboxamide]	–	9.17%	22.9%	3.21 nM	29.8%	37.3%	8.5%	9.2%	–	–	–
COc1cc2c(Oc3ccc(NC(=O)c4c5c(cn(-c6ccc(F)cc6)c4=O)CCO5)cc3F)ccnc2cc1OCCN1CC(C#N)C1 [Example 125]	3 nM	39.4%	67.8%	–	22.3%	39.6%	60.9%	91.5%	high cell-killing effect	high cell-killing effect	high cell-killing effect
COc1cc2c(Oc3ccc(NC(=O)c4c5c(cn(-c6ccc(F)cc6)c4=O)CCO5)cc3F)ccnc2cc1OCCN1CCC(F)(F)CC1 [Example 145, N-(4-((7-(2-(4,4-Difluoropiperidin-1-yl)ethoxy)-6-methoxyquinolin-4-yl)oxy)-3-fluorophenyl)-5-(4-fluorophenyl)-6-oxo-2,3,5,6-tetrahydrofuro[3,2-c]pyridine-7-carboxamide]	2 nM	16.4%	81.4%	–	25.7%	45.4%	11%	87.1%	–	–	–
COc1cc2c(Oc3ccc(NC(=O)c4c5c(cn(-c6ccc(F)cc6)c4=O)CCO5)cc3F)ccnc2cc1OCCN1CCC(F)(F)C1 [Example 134, N-(4-((7-(2-(3,3-Difluoropyrrolidin-1-yl)ethoxy)-6-methoxyquinolin-4-yl)oxy)-3-fluorophenyl)-5-(4-fluorophenyl)-6-oxo-2,3,5,6-tetrahydrofuro[3,2-c]pyridine-7-carboxamide]	2 nM	47%	82.2%	–	35.5%	47.4%	76.1%	82.8%	high cell-killing effect	high cell-killing effect	high cell-killing effect
COc1cc2c(Oc3ccc(NC(=O)c4c5c(cn(-c6ccc(F)cc6)c4=O)CCO5)cc3F)ccnc2cc1NC(=O)CCN1CCOCC1 [Example 183, N-(3-Fluoro-4-((6-methoxy-7-(3-morpholinopropanamido)quinolin-4-yl)oxy)phenyl)-5-(4-fluorophenyl)-6-oxo-2,3,5,6-tetrahydrofuro[3,2-c]pyridine-7-carboxamide]	3 nM	7.8%	87.5%	2.5 nM	27.3%	40.3%	–	–	–	–	–
CN(C)C1CN(Cc2ccc(-c3cc4nccc(Oc5ccc(NC(=O)c6c7c(cn(-c8ccc(F)cc8)c6=O)CCO7)cc5F)c4s3)nc2)C1 [Example 20, N-(4-((2-(5-((3-(Dimethylamino)azetidin-1-yl)methyl)pyridin-2-yl)thieno[3,2-b]pyridine-7-yl)oxy)-3-fluorophenyl)-5-(4-fluorophenyl)-6-oxo-2,3,5,6-tetrahydrofuro[3,2-c]pyridine-7-carboxamide]	1 nM	–	–	–	8.12%	35.5%	17.4%	91.2%	–	–	–
COC1CCN(Cc2ccc(-c3cc4nccc(Oc5ccc(NC(=O)c6c7c(cn(-c8ccc(F)cc8)c6=O)CCO7)cc5F)c4s3)nc2)CC1 [Example 31, N-(3-Fluoro-4-((2-(5-((4-methoxypiperidin-1-yl)methyl)pyridin-2-yl)thieno[3,2-b]pyridin-7-yl)oxy)phenyl)-5-(4-fluorophenyl)-6-oxo-2,3,5,6-tetrahydrofuro[3,2-c]pyridine-7-carboxamide]	2 nM	–	–	–	40.9%	52%	15.4%	47%	–	–	–
COc1cc2c(Oc3ccc(NC(=O)c4c5c(cn(-c6ccc(F)cc6)c4=O)CCO5)cc3F)ccnc2cc1OCCN1CCS(=O)(=O)CC1 [Example 142, N-(4-((7-(2-(1,1-Dioxidothiomorpholino)ethoxy)-6-methoxyquinolin-4-yl)oxy)-3-fluorophenyl)-5-(4-fluorophenyl)-6-oxo-2,3,5,6-tetrahydrofuro[3,2-c]pyridine-7-carboxamide]	1 nM	–	–	–	34%	40%	74%	67.6%	–	–	–
COCCNCc1ccc(-c2cc3nccc(Oc4ccc(NC(=O)c5c6c(cn(-c7ccc(F)cc7)c5=O)CCO6)cc4F)c3s2)nc1 [Example 1, N-(3-Fluoro-4-((2-(5-(((2-methoxyethyl)amino)methyl)pyridin-2-yl)thieno[3,2-b]pyridin-7-yl)oxy)phenyl)-5-(4-fluorophenyl)-6-oxo-2,3,5,6-tetrahydrofuro[3,2-c]pyridine-7-carboxamide hydrochloride]	2 nM	9.35%	38.2%	0.82 nM	10.3%	68.6%	–	–	–	–	–
COc1cc2c(Oc3ccc(NC(=O)c4c5c(cn(-c6ccc(F)cc6)c4=O)CCO5)cc3F)ccnc2cc1OCCCN1CCC(F)(F)CC1 [Example 105, N-(4-((7-(3-(4,4-Difluoropiperidin-1-yl)propoxy)-6-methoxyquinolin-4-yl)oxy)-3-fluorophenyl)-5-(4-fluorophenyl)-6-oxo-2,3,5,6-tetrahydrofuro[3,2-c]pyridine-7-carboxamide]	4 nM	–	–	–	33.8%	45.2%	60.4%	84.1%	–	–	–
COCCNCc1ccc(-c2cc3nccc(Oc4ccc(NC(=O)c5c6c(cn(-c7ccccc7)c5=O)CCO6)cc4F)c3s2)nc1 [Example 2, N-(3-Fluoro-4-((2-(5-(((2-methoxyethyl)amino)methyl)pyridin-2-yl)thieno[3,2-b]pyridin-7-yl)oxy)phenyl)-6-oxo-5-phenyl-2,3,5,6-tetrahydrofuro[3,2-c]pyridine-7-carboxamide hydrochloride]	67 nM	15.4%	80.5%	1.25 nM	38.4%	93.4%	–	–	–	–	–
COc1cc2c(Oc3ccc(NC(=O)c4c5c(cn(-c6ccc(F)cc6)c4=O)CCO5)cc3F)ccnc2cc1OCCCN1CC(F)(F)C1 [Example 87, N-(4-((7-(3-(3,3-Difluoroazetidin-1-yl)propoxy)-6-methoxyquinolin-4-yl)oxy)-3-fluorophenyl)-5-(4-fluorophenyl)-6-oxo-2,3,5,6-tetrahydrofuro[3,2-c]pyridine-7-carboxamide]	3 nM	–	–	–	40.7%	60.1%	77.1%	70.5%	–	–	–
